Experimental data reported in paper PMC2800054 (Journal of medicinal chemistry, 2008).
≈ marks a conversion by molar mass, not a printed value.

Tests used:
protein synthesis = settings: read-out: IC50 (inhibition of protein synthesis); in vitro protein translation assay
[1] = cited from earlier work
[2] = cited from earlier work; remark: listed apart in the source
MbtA [3] = target: T1, MbtA (Mycobacterium tuberculosis, UniProt P71716); settings: cited from earlier work; for ΔG^0 (free energy of binding): acyladenylate fragments
T1 sequence (P71716 whole entry, the tested form may be a part): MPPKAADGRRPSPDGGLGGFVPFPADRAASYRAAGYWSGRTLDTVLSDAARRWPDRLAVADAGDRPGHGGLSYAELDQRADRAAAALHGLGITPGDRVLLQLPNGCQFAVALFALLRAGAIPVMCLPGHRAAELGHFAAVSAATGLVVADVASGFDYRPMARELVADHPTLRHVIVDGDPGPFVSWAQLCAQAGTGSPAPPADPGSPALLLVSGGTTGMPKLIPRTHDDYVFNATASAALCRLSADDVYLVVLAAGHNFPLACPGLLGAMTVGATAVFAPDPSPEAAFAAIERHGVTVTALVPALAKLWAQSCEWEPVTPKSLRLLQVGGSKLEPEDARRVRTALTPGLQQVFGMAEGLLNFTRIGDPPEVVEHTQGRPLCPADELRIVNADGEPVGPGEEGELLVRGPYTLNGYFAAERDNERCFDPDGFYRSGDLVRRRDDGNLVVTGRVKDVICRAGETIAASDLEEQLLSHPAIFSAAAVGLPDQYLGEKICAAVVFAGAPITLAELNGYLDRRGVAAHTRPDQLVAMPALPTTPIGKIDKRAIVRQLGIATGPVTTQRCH

MbtA [4] = target: T1, MbtA; format: biochemical; settings: for fold loss of potency (KI^app) relative to 6 / fold increase in potency / binding affinity (KI^app) relative to 6: relative to parent compound 6
M. tuberculosis H37Rv [5] = experiment: M. tuberculosis H37Rv MIC assay; format: cell-based, Mycobacterium tuberculosis; settings: ratio of selectivity factors
MbtA [6] = target: T1, MbtA; format: binding; settings: ITC
[7] = target: cysteine adenylation domain in the multifunctional NRPS module known as HMWP2; settings: read-out: Ki^app; cited from earlier work
M. tuberculosis H37Rv [8] = settings: under the assay conditions; positive control; cited from earlier work
[9] = saturating salicylic acid, 298 K

5′-O-[N-(salicyl)sulfamoyl]adenosine [Compound 6]
IC50 (protein synthesis): > 100000 nM | stability in human plasma [1]: stable | stability in human liver microsomes [2]: stable

Nc1ncnc2c1ncn2[C@@H]1O[C@H](COP(=O)(O)O)[C@@H](O)[C@H]1O [AMP, adenosine monophosphate]
ΔG^0 (free energy of binding) (MbtA [3]): -5.0 kcal/mol

CCN(CC)CC.Nc1ncnc2c1ccn2[C@@H]1O[C@H](COS(=O)(=O)NC(=O)c2ccccc2O)[C@@H](O)[C@H]1O [Compound 7, 7-Deaza-5′-O-[N-(2-hydroxybenzoyl)sulfamoyl]adenosine Triethylammonium Salt]
fold loss of potency (KI^app) relative to 6 (MbtA [4]): 4 fold

CCN(CC)CC.O=C(NS(=O)(=O)OC[C@H]1O[C@@H](n2cnc3c(=O)[nH]cnc32)[C@H](O)[C@@H]1O)c1ccccc1O [Compound 9, 5′-O-[N-(2-Hydroxybenzoyl)sulfamoyl]inosine Triethylammonium Salt]
fold loss of potency (KI^app) relative to 6 (MbtA [4]): 121 fold

CCN(CC)CC.CN(C)c1ncnc2c1ncn2[C@@H]1O[C@H](COS(=O)(=O)NC(=O)c2ccccc2O)[C@@H](O)[C@H]1O [Compound 10, 5′-O-[N-(2-Hydroxybenzoyl)sulfamoyl]-N^6,N^6′-dimethyladenosine Triethylammonium Salt]
fold activity difference between N-6-dimethyl 10 and N-6-methyl 11 (MbtA [4]; 10 versus 11): ~ 238 fold | fold loss of potency (KI^app) relative to 6 (MbtA [4]): 58 fold

CC(C)CNc1ncnc2c1ncn2[C@@H]1O[C@H](COS(=O)(=O)[N-]C(=O)c2ccccc2O)[C@@H](O)[C@H]1O.[Na+] [Compound 15, 5′-O-[N-(2-Hydroxybenzoyl)sulfamoyl]-N^6-isobutyladenosine Sodium Salt]
fold loss of potency (KI^app) relative to 6 (MbtA [4]): 1140 fold

CCN(CC)CC.O=C(NS(=O)(=O)OC[C@H]1O[C@@H](n2cnc3c(NC4CC4)ncnc32)[C@H](O)[C@@H]1O)c1ccccc1O [Compound 16, N^6-Cyclopropyl-5′-O-[N-(2-hydroxybenzoyl)sulfamoyl]adenosine Triethylammonium Salt]
fold increase in potency / binding affinity (KI^app) relative to 6 (MbtA [4]): 3.5 fold | enhancement in selectivity S relative to Sal-AMS 6 (M. tuberculosis H37Rv [5]): 16 fold

O=C([N-]S(=O)(=O)OC[C@H]1O[C@@H](n2cnc3c(NC4CCC4)ncnc32)[C@H](O)[C@@H]1O)c1ccccc1O.[Na+] [Compound 17, N^6-Cyclobutyl-5′-O-[N-(2-hydroxybenzoyl)sulfamoyl]adenosine Sodium Salt]
fold loss of potency (KI^app) relative to 6 (MbtA [4]): 124 fold

CCN(CC)CC.Nc1nc(I)nc2c1ncn2[C@@H]1O[C@H](COS(=O)(=O)NC(=O)c2ccccc2O)[C@@H](O)[C@H]1O [Compound 23, 5′-O-[N-(2-Hydroxybenzoyl)sulfamoyl]-2-iodoadenosine Triethylammonium Salt]
fold increase in potency / binding affinity (KI^app) relative to 6 (MbtA [4]): 2 fold

CCN(CC)CC.Nc1nc(Nc2ccccc2)nc2c1ncn2[C@@H]1O[C@H](COS(=O)(=O)NC(=O)c2ccccc2O)[C@@H](O)[C@H]1O [Compound 24, 2-Anilino-5′-O-[N-(2-hydroxybenzoyl)sulfamoyl]adenosine Triethylammonium Salt]
fold increase in potency / binding affinity (KI^app) relative to 6 (MbtA [4]): 7 fold

CCN(CC)CC.Nc1nc(C#Cc2ccccc2)nc2c1ncn2[C@@H]1O[C@H](COS(=O)(=O)NC(=O)c2ccccc2O)[C@@H](O)[C@H]1O [Compound 25, 5′-O-[N-(2-Hydroxybenzoyl)sulfamoyl]-2-(phenylethynyl)adenosine Triethylammonium Salt]
fold increase in potency / binding affinity (KI^app) relative to 6 (MbtA [4]): 17 fold

CCN(CC)CC.Nc1nc(-c2ccccc2)nc2c1ncn2[C@@H]1O[C@H](COS(=O)(=O)NC(=O)c2ccccc2O)[C@@H](O)[C@H]1O [Compound 26, 5′-O-[N-(2-Hydroxybenzoyl)sulfamoyl]-2-phenyladenosine Triethylammonium Salt]
ΔG^0 (MbtA [6]): -17.5 kcal/mol | ΔH (MbtA [6]; [9]): -15.9 ± 0.6 kcal/mol | −TΔS (MbtA [6]; [9]): -1.6 ± 1.4 kcal/mol

Nc1nc(-c2ccccc2-c2ccccc2)nc2c1ncn2[C@@H]1O[C@H](COS(=O)(=O)[N-]C(=O)c2ccccc2O)[C@@H](O)[C@H]1O.[Na+] [Compound 27, 2-(Biphen-2-yl)-5′-O-[N-(2-hydroxybenzoyl)sulfamoyl]adenosine Sodium Salt]
fold loss in potency compared to 26 (MbtA [4]; 27 compared to 26): 174 fold

Nc1ncnc2c1ncn2[C@@H]1O[C@H](COS(=O)(=O)NC(=O)[C@@H](N)CS)[C@@H](O)[C@H]1O [cysteyl-AMS]
Ki [7]: 240 nM

NNC(=O)c1ccncc1 [isoniazid]
MIC99 (M. tuberculosis H37Rv [8]): 0.18 µM (≈ 0.0247 µg/mL)

O=C(O)c1ccccc1O [salicylic acid]
ΔG^0 (free energy of binding) (MbtA [3]): -7.9 kcal/mol | KA(Sal) (MbtA [3]; association constant with MbtA): 664000 M⁻¹ | ΔH(Sal) (MbtA [3]; enthalpy with MbtA): -6.77 kcal/mol | Kd (MbtA [3]; weak ligand for ITC displacement): 1630 ± 520 nM
